Experimental data: article PMC6315057, “Industrial scale high-throughput screening delivers multiple fast acting macrofilaricides” (Nature Communications, 2019)
In brackets after ≈: the same amount, converted by molar mass. Read-outs that look alike come from different tables or passages of the source.

How the values were obtained:
[1] = test system: Wolbachia in C6/36 (wAlbB) cells; experiment: Confirmatory re-assessment in the insect cell screen (cell assay EC50); type: cell-based, Wolbachia pipientis wAlbB (in Aedes albopictus C6/36 cells); conditions: insect cell screen, re-sourced or re-synthesised samples
Text: To further validate the hit molecules from these 9 clusters, samples were sourced either from the AstraZeneca compound inventory or through re-synthesis. All 18 samples were characterised by nuclear magnetic resonance (NMR) and mass spectroscopy to confirm their chemical structures and by HPLC/LCMS to establish their purity (Supplementary Table 5 and Supplementary Data 1). These samples were also subject to confirmatory re-assessment in both the insect cell screen and Mf assays for anti-Wolbachia potency alongside confirmation of DMPK properties (LogD7.4, aqueous solubility in pH 7.4 PBS, human microsomal turnover, rat hepatocyte turnover and human plasma protein binding) (Fig. 4, Supplementary Figure 1 and Supplementary Table 4).
(§1) On day 0, a single cryovial was recovered and the cells washed before being transferred to a T225 cm^2 flask. After a 7-day recovery Wolbachia infection level (quality control (QC)) was checked by SYTO®11 DNA staining of both the host cell nuclei and intracellular Wolbachia. The end-point read out from the Operetta® high content imaging system (Perkin Elmer) was the percentage of cells infected with Wolbachia. This was obtained from cytoplasm texture analysis by the associated Harmony® software. Cells with a >50% of the population infected with Wolbachia were classed as having a good Wolbachia level and therefore used for screening through addition of 2000 cells per well into assay ready 384-well plates containing the test compounds. […] Each plate included on-board controls; vehicle/DMSO (total/maximum Wolbachia signal) or doxycycline 5 µM (null/minimum Wolbachia signal), resulting in single shot screening of 352 compounds per plate for the primary screen. […] QC plates were also created including full columns of the following controls; DMSO (total/max), 5 μM doxycycline (null/min), as well as 50 nM doxycycline (reference/medium Wolbachia signal). Daily batches contained ~150 compound plates in addition to the QC plates. Each compound plate was foil sealed before incubation for 7 days at 26 °C, 95% humidity and atmospheric air.

[2] = test system: Wolbachia within Brugia malayi Mf; experiment: B. malayi microfilarial (Mf) in vitro anti-Wolbachia assay (wsp:gst qPCR); type: cell-based; conditions: for EC50: B. malayi Mf, 6 days, read-out: Mf EC50
Protocol: The Mf were obtained by peritoneal lavage, using a catheter, of gerbils (Meriones unguiculatus) harbouring a patent infection of B. malayi. Mf were purified using a PD-10 desalting column (Fisher), centrifuged (311 RCF for 5 min at room temperature) before the addition of 8000 Mf/well of a 96-well plate (100 µl per well) in complete media consisting of RPMI supplemented with 10% FBS, 1% penicillin streptomycin and 1% amphotericin B. […] Each plate contained doxycycline (5 µM) and DMSO controls. After incubation at 37 °C for 6 days in 5% CO2, visual assessment of Mf motility was performed and scored from 0 to 4 per well (where 0 = no movement and 4 = highly motile). DNA extraction per sample was performed using the QIAmp DNA Mini Kit before quantitative PCR was performed to obtain the ratio of Wolbachia Surface Protein gene copy number (wsp) to Glutathione S-Transferase gene copy number (gst)[36]. The DNA was amplified using the primers as indicated in Supplementary Table 6.
The wsp:gst ratio data allowed for normalisation of the Wolbachia level to the Mf biomass for each well. The change in wsp:gst for each compound compared to the DMSO control was calculated before normalisation to the onboard doxycycline control to allow for inter-assay comparison.

LogD7.4 = type: physicochemical; conditions: pH 7.4
Text: (§2) The DMPK data used for triaging compounds, including LogD7.4, aqueous solubility, plasma protein binding, microsome and hepatocyte clearance measurements, were generated using the standard AstraZeneca UK high-throughput platform[37],[38].

[3] = Aqueous solubility in pH 7.4 PBS; type: physicochemical; conditions: for solubility: PBS pH 7.4, aqueous buffer, pH 7.4 PBS, read-out: Aqueous solubility in pH7.4 PBS
Text: as §2

THP-1 cells = experiment: Mammalian cell viability counter-screen (CellTiter-Blue); type: cell-based, human; conditions: 48 h, read-out: HTS IC50 mammalian toxicity
Protocol: The human monocytic THP-1 cell line (ATCC® TIB-202) used for mammalian cytotoxicity evaluation was routinely cultured in roller bottles. Growth media consisted of RPMI 1640 supplemented with 10% FBS and 2 mM L-glutamine. Cells were maintained at 37 °C with 95% humidity in 5% CO2 in a shaking incubator.
All compounds selected for secondary IC50 screen were tested in parallel for mammalian cell viability using the CellTiter-Blue® Cell Viability Assay. THP1 cells were removed from culture and plated at 1 × 10^4 cells/well (40 µl) into 384-well assay ready plates and incubated at 37 °C, 5% CO2 for 48 h at 95% humidity. After the addition of CellTiter-Blue Viability reagent (8 µl of a 1:6 dilution) the assay plates were incubated for a further 2 h before fluorescence detected using a PerkinElmer EnVision™ plate reader.

Rat hepatocyte clearance = type: in vitro ADME
Text: as §2

[4] = test system: Wolbachia in C6/36 (wAlbB) cells; experiment: Secondary concentration response HTS (IC50) anti-Wolbachia screen in C6/36 (wAlbB) insect cells; type: cell-based, Wolbachia pipientis wAlbB (in Aedes albopictus C6/36 cells); conditions: 7-day incubation, 10-point concentration range
Protocol: Initially C6/36 (wAlbB) cells (insect cells stably infected with the Wolbachia target) from a single cryopreserved batch were recovered over 7 days prior to plating into 384-well assay ready plates (containing the test compounds), using a semi-automated process allowing for daily batches of ~150 plates, set up 4 days per week for 8 weeks. After a 7-day incubation period with the test compounds the plates were moved into the second fully automated stage (using the Agilent Technologies BioCel system) involving formaldehyde fixation, DNA staining of the insect cell nuclei (Hoechst) for toxicity analysis and antibody staining specific to the intracellular Wolbachia (wBmPAL primary antibody and far-red secondary antibody). In the final stage the fixed and stained plates from stage 2 were processed through automated data acquisition (High Res Biosolutions system, incorporating EnVision™ and acumen® plate readers). This industry standardised assay was then used to screen AstraZeneca’s full library of 1.3 million compounds within 10 weeks. In total this HTS included 30 × 3 week assays covering 3835 × 384-well plates. This primary HTS generated 20,255 hits defined as >80% reduction in Wolbachia with <60% toxicity to the host insect cell (eliminating false positives). This represents an overall hit rate of 1.56%. These compounds are depicted in chemical space in Fig. 2 (black points)[21].
The mosquito (Aedes albopictus) derived cell line C6/36 (ATCC® CRL 1660), stably infected with Wolbachia pipientis wAlbB (C6/36(wAlbB)), was maintained in Leibovitz L15 medium containing 2 mM L-glutamine, 1% nonessential amino acids, 2% tryptose phosphate broth and 20% heat-inactivated foetal bovine serum (FBS) at 26 °C[18]. This screen exclusively used cells from the large-scale cryopreserved batch produced as part of this campaign by culturing the cells at scale before cryopreservation (90% FBS and 10% DMSO). This produced a cell bank of 190 × 1 ml cryovials containing 3 × 10^7 cells per vial.
as §1
After 7 days of drug incubation, the plates were loaded into the fully automated BioCel system which performed the following additions; fixation and DNA staining (1.8% formaldehyde + 0.6 µg/ml Hoechst 33342, 20 min), permeabilisation (80 μl of PBS + 0.25% Triton-X 100, 30 min), blocking (PBS + 6% BSA, 40 min), overnight incubation in the Wolbachia-specific anti-wBmPAL primary antibody[34] […]

[5] = Human microsome clearance; type: in vitro ADME; conditions: for microsomal CLint: human microsomes
Text: as §2

[6] = Human plasma protein binding; type: in vitro ADME; conditions: for fraction unbound: plasma
Text: as §2

Structure (SMILES)	EC50 ([1]; Wolbachia, C6/36) [nM]	EC50 ([2]; Brugia malayi, 144 h) [nM]	logD (LogD7.4)	solubility [3] [µM]	IC50 (THP-1 cells; Homo sapiens) [nM]	Rat hepatocytes CLint (Rat hepatocyte clearance) [µl/min/1x106 cells]	IC50 ([4]; Wolbachia, 168 h) [nM]	microsomal CLint ([5]; human) [µL/min/mg]	fraction unbound [6]	Mf in vitro potency (in words) [2]	Solubility (in words) [3]	Human microsomal stability (in words) [5]	Metabolic stability (in words) ([5]; in vitro, system not given)	EC50 [1] [nM]	EC50 [2] [nM]	LogD 7.4 (LogD7.4)	IC50 (THP-1 cells) [nM]	IC50 [4] [nM]	Human microsome CLint ([5]; human, microsomes) [µL/min/mg]	Human plasma protein binding [6] [%]
Cc1nccc(N2CCC(C(=O)N3CCCN(S(=O)(=O)c4ccc(Br)cc4)CC3)CC2)n1 [1B, (4-((4-bromophenyl)sulfonyl)-1,4-diazepan-1-yl)(1-(2-methylpyrimidin-4-yl)piperidin-4-yl)methanone]	268	~296	2.7	217 (≈ 113 µg/mL)	> 30600	24.8	111	> 300	0.23											
O=C(Cc1cccc(F)c1)Nc1[nH]ncc1-c1ccccc1 [2B, 2-(3-fluorophenyl)-N-(4-phenyl-1H-pyrazol-5-yl)acetamide]	11300	> 5000	2.5	172 (≈ 50.8 µg/mL)	> 30600	39.5	4370	8.5	0.12											
CN(CC1CCCC(=O)N1)c1cc(OCc2ccccc2)nc(-c2nccn2C)n1 (stereo not shown) [3B, 6-(((6-(benzyloxy)-2-(1-methyl-1H-imidazol-2-yl)pyrimidin-4-yl)(methyl)amino)methyl)piperidin-2-one]	645	~223	2.5	> 1000	> 30600	218.6	510	35.5	0.2											
CNC(=O)c1csc(C2CCCN2Cc2ccc(C)c(F)c2)n1 (stereo not shown) [4B, 2-(1-(3-fluoro-4-methylbenzyl)pyrrolidin-2-yl)-N-methylthiazole-4-carboxamide]	66	1760	3.7	397 (≈ 132 µg/mL)	> 30600	> 300	228	83.4	0.05											
Cc1nc(C(=O)NC(C)c2cccc3ccccc23)c(NC(=O)Cc2ccccc2)[nH]1 (stereo not shown) [5B, 2-methyl-N-(1-(naphthalen-1-yl)ethyl)-5-(2-phenylacetamido)-1H-imidazole-4-carboxamide]	68	294	4.6	22 (≈ 9.07 µg/mL)	> 30600	71.1	158	101	0.011											
O=C1NCCCc2nc(N3CCN(c4ccccc4F)CC3)sc21 [6A, 2-(4-(2-fluorophenyl)piperazin-1-yl)-5,6,7,8-tetrahydro-4H-thiazolo[5,4-c]azepin-4-one]	2560	447	2.9	26 (≈ 9.01 µg/mL)	> 30600	55.1	684	11.3	0.088	lower potency than representatives 4A or 5A	acceptable	very good								
Cc1csc(CN(C)c2nc3c(s2)C(=O)NCCC3)n1 [6B, 2-(methyl((4-methylthiazol-2-yl)methyl)amino)-5,6,7,8-tetrahydro-4H-thiazolo[5,4-c]azepin-4-one]	897	> 5000	1.6	756 (≈ 233 µg/mL)	> 30600	22.9	594	3.5	0.4											
COc1ccc(C(=O)Nc2ccc(CNC(=O)c3ccnn3C)cc2C)cn1 [7A, 6-methoxy-N-(2-methyl-4-((1-methyl-1H-pyrazole-5-carboxamido)methyl)phenyl)nicotinamide]	1140	~1160	2	100 (≈ 37.9 µg/mL)	23200	< 1	1270	< 3	0.003		good		high							
COCc1ccc(C(=O)Nc2ccc(CNC(=O)c3ccnn3C)cc2C)nc1 [7B, 5-(methoxymethyl)-N-(2-methyl-4-((1-methyl-1H-pyrazole-5-carboxamido)methyl)phenyl) picolinamide]						25.0								3070	2220	2.3	> 30600	2480	40.7	99.5
CN(Cc1cccc(Cl)c1)S(=O)(=O)c1ccc2c(c1)C(=O)NCC2 [8A, N-(3-chlorobenzyl)-N-methyl-1-oxo-1,2,3,4-tetrahydroisoquinoline-7-sulfonamide]	515	2700	2.7	16 (≈ 5.84 µg/mL)	> 30600	> 300	486	> 300	0.05											
